What follows are molecules tested against Cdk9/cyclinT1 (Homo sapiens (Human), UniProt P50750) (assay: Cdk9/CyclinT1 IMAP Protocol (fluorescence polarization kinase assay)). Conditions: Table 2; generated using one of the two Cdk9/cyclinT1 assays (IMAP or Alpha Screen), not specified which; unit inferred.
Assay type: biochemical
Summary of the method: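 Reaction used 4 nM Cdk9/cyclinT1, 100 nM 5TAMRA-cdk7tide peptide and 6 uM ATP in 100 mM Tris pH 7.2 with MgCl2, 0.01% Tween-20, 1 mM DTT and 2.5% DMSO, running 4.5 h. Phosphopeptide was captured by IMAP binding reagent for >1 h, then read by fluorescence polarization (ex 531/em 595 nm).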

Sequence of Cdk9/cyclinT1 (P50750 whole entry): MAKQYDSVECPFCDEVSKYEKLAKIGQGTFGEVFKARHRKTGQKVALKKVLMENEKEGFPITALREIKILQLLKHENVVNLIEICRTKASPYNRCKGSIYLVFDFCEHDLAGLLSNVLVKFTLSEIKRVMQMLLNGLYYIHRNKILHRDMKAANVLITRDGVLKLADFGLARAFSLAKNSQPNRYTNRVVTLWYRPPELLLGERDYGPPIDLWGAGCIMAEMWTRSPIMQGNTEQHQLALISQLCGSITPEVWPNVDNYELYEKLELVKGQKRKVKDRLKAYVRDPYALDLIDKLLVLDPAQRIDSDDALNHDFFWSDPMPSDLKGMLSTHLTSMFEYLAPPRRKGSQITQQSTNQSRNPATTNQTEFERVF
Sequence of Cdk9/cyclinT1 (O60563 whole entry partner): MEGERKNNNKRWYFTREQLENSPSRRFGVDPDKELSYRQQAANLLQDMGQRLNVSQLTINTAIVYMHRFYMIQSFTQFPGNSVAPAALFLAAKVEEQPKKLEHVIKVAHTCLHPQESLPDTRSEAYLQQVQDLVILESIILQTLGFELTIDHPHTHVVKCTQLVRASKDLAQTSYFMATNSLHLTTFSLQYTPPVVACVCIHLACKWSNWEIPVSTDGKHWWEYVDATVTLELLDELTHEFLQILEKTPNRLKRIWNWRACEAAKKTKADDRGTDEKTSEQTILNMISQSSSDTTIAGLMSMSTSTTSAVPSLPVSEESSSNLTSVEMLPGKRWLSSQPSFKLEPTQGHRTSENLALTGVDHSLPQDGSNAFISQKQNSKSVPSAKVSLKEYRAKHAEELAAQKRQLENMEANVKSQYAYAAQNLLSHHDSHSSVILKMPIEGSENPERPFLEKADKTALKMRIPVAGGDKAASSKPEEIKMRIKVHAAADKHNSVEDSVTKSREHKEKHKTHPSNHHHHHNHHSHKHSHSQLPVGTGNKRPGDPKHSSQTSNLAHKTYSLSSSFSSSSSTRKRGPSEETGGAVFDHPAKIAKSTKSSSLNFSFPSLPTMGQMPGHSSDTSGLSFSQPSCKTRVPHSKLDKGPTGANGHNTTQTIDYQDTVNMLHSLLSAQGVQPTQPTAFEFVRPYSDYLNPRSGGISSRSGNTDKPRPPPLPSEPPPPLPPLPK

SMILES | IC50
CC1(C)CC(CNc2ccc(Cl)c(-c3cc(N[C@H]4CC[C@H](NC[C@@H](O)C(F)(F)F)CC4)ncc3Cl)n2)CCO1 (stereo partly shown) [Compound 299] | 1 nM
Clc1cnc(NC[C@@H]2CCCNC2)cc1-c1cccc(NCC2CCOCC2)n1 [Compound 300] | 219 nM
FC(F)(F)OCCN[C@H]1CC[C@H](Nc2cc(-c3cccc(NCC4CCOCC4)n3)c(Cl)cn2)CC1 [Compound 301, 5′-chloro-N6-((tetrahydro-2H-pyran-4-yl)methyl)-N2′-(trans-4-(2-(trifluoromethoxy)ethylamino)cyclohexyl)-2,4′-bipyridine-2′,6-diamine] | 3 nM
Clc1cnc(NC[C@H]2CCCN2)cc1-c1cccc(NCC2CCOCC2)n1 [Compound 303] | 1300 nM
Clc1cnc(NC[C@@H]2CCCN2)cc1-c1cccc(NCC2CCOCC2)n1 [Compound 304] | 6190 nM
COC[C@@H](C)N[C@H]1CC[C@H](Nc2cc(-c3cccc(NCC4(OC)CCOCC4)n3)c(Cl)cn2)CC1 [Compound 305] | 1 nM
COC[C@@H](C)N[C@H]1CC[C@H](Nc2cc(-c3cccc(NCC4(OC)CCCCC4)n3)c(Cl)cn2)CC1 [Compound 306] | 9 nM
COC[C@@H](C)N[C@H]1CC[C@H](Nc2cc(-c3cccc(NCC4COC(C)(C)CO4)n3)c(Cl)cn2)CC1 (stereo partly drawn) [Compound 307, 5′-chloro-N6-((5,5-dimethyl-1,4-dioxan-2-yl)methyl)-N2′-(trans-4-((R)-1-methoxypropan-2-yl-amino)cyclohexyl)-2,4′-bipyridine-2′,6-diamine] | 8 nM
COC[C@@H](C)N[C@H]1CC[C@H](Nc2cc(-c3ccc(C(F)(F)F)c(NCC4CCOCC4)n3)c(Cl)cn2)CC1 [Compound 308] | 1 nM
COC[C@@H](C)N[C@H]1CC[C@H](Nc2cc(-c3nc(NCC4CCOCC4)ccc3C(F)(F)F)c(Cl)cn2)CC1 [Compound 309] | 35 nM
COC[C@@H](C)N[C@H]1CC[C@H](Nc2cc(-c3cccc(NCC4(C#N)CCOCC4)n3)c(Cl)cn2)CC1 [Compound 310, 4-((5′-chloro-2′-(trans-4-((R)-1-methoxypropan-2-yl-amino)cyclohexylamino)-2,4′-bipyridin-6-ylamino)methyl)tetrahydro-2H-pyran-4-carbonitrile] | 0.3 nM
CC1(CNc2cccc(-c3cc(N[C@H]4CC[C@H](N)CC4)ncc3Cl)n2)CCOCC1 [Compound 311, N2′-(trans-4-aminocyclohexyl)-5′-chloro-N6-((4-methyltetrahydro-2H-pyran-4-yl)methyl)-2,4′-bipyridine-2′,6-diamine] | 1 nM
CC1(CNc2nc(-c3cc(N[C@H]4CC[C@H](N)CC4)ncc3Cl)ccc2F)CCOCC1 [Compound 312, N2′-(trans-4-aminocyclohexyl)-5′-chloro-5-fluoro-N6-((4-methyltetrahydro-2H-pyran-4-yl)methyl)-2,4′-bipyridine-2′,6-diamine] | 0.3 nM
N[C@H]1CC[C@H](Nc2cc(-c3cccc(NCC4(F)CCOCC4)n3)c(Cl)cn2)CC1 [Compound 313, N2′-(trans-4-aminocyclohexyl)-5′-chloro-N6-((4-fluorotetrahydro-2H-pyran-4-yl)methyl)-2,4′-bipyridine-2′,6-diamine] | 1 nM
COCCN[C@H]1CC[C@H](Nc2cc(-c3ccc(F)c(NCC4CCOCC4)n3)c(Cl)cn2)CC1 [Compound 314] | 1 nM
[2H]C([2H])(Nc1cccc(-c2cc(N[C@H]3CC[C@H](NC[C@@H]4CCCO4)CC3)ncc2Cl)n1)C1CCOCC1 [Compound 317, 5′-chloro-N6-(dideutero-(tetrahydro-2H-pyran-4-yl)methyl)-N2′-(trans-4-(((S)-tetrahydrofuran-2-yl)methyl)aminocyclohexyl)-2,4′-bipyridine-2′,6-diamine] | 99 nM

SMILES | IC50
N[C@H]1CC[C@H](Nc2cc(-c3nc(NCC4CCOCC4)c(F)cc3F)c(Cl)cn2)CC1 [Compound 318] | 0.26 nM
CC(CS(C)(=O)=O)N[C@H]1CC[C@H](Nc2cc(-c3ccc(F)c(NCC4CCOCC4)n3)c(Cl)cn2)CC1 (stereo partly shown) [Compound 319] | 4 nM
CC1(C)OC[C@@H](CN[C@H]2CC[C@H](Nc3cc(-c4nc(NCC5CCOCC5)ccc4Cl)c(Cl)cn3)CC2)O1 [Compound 320, 3,5′-dichloro-N2′-(trans-4-(((R)-2,2-dimethyl-1,3-dioxolan-4-yl)methyl)aminocyclohexyl)-N6-((tetrahydro-2H-pyran-4-yl)methyl)-2,4′-bipyridine-2′,6-diamine] | 1 nM
O=S1(=O)CCC(N[C@H]2CC[C@H](Nc3cc(-c4ccc(F)c(NCC5CCOCC5)n4)c(Cl)cn3)CC2)C1 (stereo partly shown) [Compound 322] | 3 nM
COC[C@@H](C)N[C@H]1CC[C@H](Nc2cc(-c3nc(NC[C@@H]4CCCOC4)ccc3Cl)c(Cl)cn2)CC1 [Compound 323, 3,5′-dichloro-N2′-(trans-4-((R)-1-methoxypropan-2-yl-amino)cyclohexyl)-N6-(((S)-tetrahydro-2H-pyran-3-yl)methyl)-2,4′-bipyridine-2′,6-diamine] | 1 nM
Fc1ccc(-c2cc(N[C@H]3CC[C@H](NCC4CCO4)CC3)ncc2Cl)nc1NCC1CCOCC1 (stereo partly drawn) [Compound 324, 5′-chloro-5-fluoro-N2′-(trans-4-(oxetan-2-yl-methylamino)cyclohexyl)-N6-((tetrahydro-2H-pyran-4-yl)methyl)-2,4′-bipyridine-2′,6-diamine] | 2 nM
CS(=O)(=O)CCN[C@H]1CC[C@H](Nc2cc(-c3ccc(F)c(NCC4CCOCC4)n3)c(Cl)cn2)CC1 [Compound 326] | 0.49 nM
COC[C@@H](C)N[C@H]1CC[C@H](Nc2cc(-c3nc(NC[C@H]4CCCOC4)ccc3Cl)c(Cl)cn2)CC1 [Compound 327, 3,5′-dichloro-N2′-(trans-4-((R)-1-methoxypropan-2-yl-amino)cyclohexyl)-N6-(((R)-tetrahydro-2H-pyran-3-yl)methyl)-2,4′-bipyridine-2′,6-diamine] | 1 nM
O=S1(=O)CCC(CN[C@H]2CC[C@H](Nc3cc(-c4ccc(F)c(NCC5CCOCC5)n4)c(Cl)cn3)CC2)CC1 [Compound 331] | 1 nM
CC1(CN[C@H]2CC[C@H](Nc3cc(-c4ccc(F)c(NCC5CCOCC5)n4)c(Cl)cn3)CC2)OCCO1 [Compound 333, 5′-chloro-5-fluoro-N2′-(trans-4-((2-methyl-1,3-dioxolan-2-yl)methyl)aminocyclohexyl)-N6-((tetrahydro-2H-pyran-4-yl)methyl)-2,4′-bipyridine-2′,6-diamine] | 4 nM
COCCN[C@H]1CC[C@H](Nc2cc(-c3ccc(F)c(NCC4(C#N)CCOCC4)n3)c(Cl)cn2)CC1 [Compound 339] | 0.17 nM
COC[C@@H](C)N[C@H]1CC[C@H](Nc2cc(-c3ccc(F)c(NCC4(C#N)CCOCC4)n3)c(Cl)cn2)CC1 [Compound 340, 4-((5′-chloro-5-fluoro-2′-(trans-4-((R)-1-methoxypropan-2-yl-amino)cyclohexylamino)-2,4′-bipyridin-6-ylamino)methyl)tetrahydro-2H-pyran-4-carbonitrile] | 0.23 nM
N#CC1(CNc2nc(-c3cc(N[C@H]4CC[C@H](N)CC4)ncc3Cl)ccc2F)CCOCC1 [Compound 341] | 0.15 nM
CCCN(CCC)[C@H]1CC[C@H](Nc2cc(-c3ccc(F)c(NCC4(C#N)CCOCC4)n3)c(Cl)cn2)CC1 [Compound 343] | 0.31 nM
CC1(CNc2nc(-c3cc(N[C@H]4CC[C@H](NC5CCS(=O)(=O)CC5)CC4)ncc3Cl)ccc2F)CCOCC1 [Compound 346] | 1 nM

— US8778951B2, “Heteroaryl compounds and their uses” (Novartis AG, priority 2009, dated 2014)
